Data published in EP0044212B1, “Herbicidal o-alkylsulfonyloxy- and o-alkylsulfonylamino-benzenesulfonamides” (E.I. DU PONT DE NEMOURS AND COMPANY, priority 1980, dated 1982).

Assays:
[1] = test system: Soybean; assay: Test B pre-emergence on Fallsington silt loam; assay type: in vivo, soybeans; conditions: 28 days
Source text: (§1) Two plastic bulb pans were filled with fertilized and limed Fallsington silt loam soil. One pan was planted with corn, sorghum, Kentucky bluegrass and several grassy weeds. The other pan was planted with cotton, soybeans, purple nutsedge (Cyperus rotundus), and several broadleaf weeds. The following grassy and broadleaf weeds were planted: crabgrass (Digitaria sanguinalis), barnyardgrass (Echinochloa crusgalli), wild oats (Avena fatua), johnsongrass (Sorghum halepense), dallisgrass (Paspalum dilatatum), giant foxtail (Setaria faberii), cheatgrass (Bromus secalinus), mustard (Brassica arvensis), cocklebur (Xanthium pensylvanicum), pigweed (Amaranthus retroflexus), morningglory (Ipomoea hederacea), cassia (Cassia tora), teaweed (Sida spinosa), velvetleaf (Abutilon theophrasti), and jimsonweed (Datura stramonium). A 12.5 cm diameter plastic pot was also filed with prepared soil and planted with rice and wheat. Another 12.5 cm pot was planted with sugarbeets. The above four containers were treated pre- emergence with several test compounds within the scope of the invention.
(§2) Twenty-eight days after treatment, the plants were evaluated and visually rated for response to the chemical treatments utilizing the rating system described previously for Test A. The data are summarized in Table B.

[2] = test system: Giant Foxtail; assay: Test F over-the-top soil/foliage treatment; assay type: in vivo, Setaria faberii; set-up: scale not given here; conditions: soil/foliage spray, ~14 days
Protocol: (§3) The test chemicals, dissolved in a non-phytotoxic solvent, were applied in an overall spray to the foliage and surrounding […] of selected plant species. […] Approximately fourteen days after treatment, all species were visually compared to untreated controls and rated for response to treatment.
(§4) All plant species were seeded in Woodstown sandy loam soil and grown in a greenhouse. The following species were grown in soil contained in plastic pots (25 cm diameter by 13 cm deep): soybeans, cotton, alfalfa, corn, rice, wheet, sorghum, velvetleaf (Abutilon theophrasti), sesbania (Sesbania exaltata), Cassia (Cassia tora), morningglory (Ipomoea hederacea), jimsonweed (Datura stramonium), cocklebur (Xanthium pensylvanicum), crabgrass (Digitaria spp.), nutsedge (Cyperus rotundus), barnyardgrass (Echinochloa crusgalli), giant foxtail (Setaria faberii) and wild oats (Avena fatua). The following species were grown in soil in a paper cup (12 cm diameter by 13 cm deep): sunflower, sugarbeets, and mustard. All plants were sprayed approximately 14 days after planting.

[3] = test system: Rice; assay: Test B pre-emergence on Fallsington silt loam; assay type: in vivo; conditions: 0.007 kg/ha, 28 days
Source text: as §1, §2

[4] = test system: Cotton; assay: Test B pre-emergence on Fallsington silt loam; assay type: in vivo; conditions: 28 days
Source text: as §1, §2

[5] = test system: Sorghum; assay: Test B pre-emergence on Fallsington silt loam; assay type: in vivo; conditions: 28 days
Source text: as §1, §2

[6] = test system: Sorghum; assay: Test F over-the-top soil/foliage treatment; assay type: in vivo; set-up: scale not given here; conditions: soil/foliage spray, ~14 days
Protocol: as §3, §4

[7] = test system: Alfalfa; assay: Test F over-the-top soil/foliage treatment; assay type: in vivo; set-up: scale not given here; conditions: soil/foliage spray, ~14 days
Protocol: as §3, §4

[8] = test system: Nutsedge; assay: Test B pre-emergence on Fallsington silt loam; assay type: in vivo, Cyperus rotundus; conditions: 28 days
Source text: as §1, §2

[9] = test system: Mustard; assay: Test F over-the-top soil/foliage treatment; assay type: in vivo; conditions: soil/foliage spray; 0.007 kg/ha; ~14 days
Protocol: as §3, §4

[10] = test system: Corn; assay: Test F over-the-top soil/foliage treatment; assay type: in vivo; conditions: soil/foliage spray, ~14 days
Protocol: as §3, §4

[11] = test system: Sunflower; assay: Test F over-the-top soil/foliage treatment; assay type: in vivo; conditions: soil/foliage spray; 0.007 kg/ha; ~14 days
Protocol: as §3, §4

[12] = test system: Sugarbeets; assay: Test F over-the-top soil/foliage treatment; assay type: in vivo; conditions: soil/foliage spray; 0.007 kg/ha; ~14 days
Protocol: as §3, §4

[13] = test system: Cassia; assay: Test B pre-emergence on Fallsington silt loam; assay type: in vivo, Cassia tora; conditions: 28 days
Source text: as §1, §2

[14] = test system: Dallisgrass; assay: Test B pre-emergence on Fallsington silt loam; assay type: in vivo, Paspalum dilatatum; set-up: scale not given here; conditions: 28 days
Source text: as §1, §2

[15] = test system: Cocklebur; assay: Test B pre-emergence on Fallsington silt loam; assay type: in vivo, Xanthium pensylvanicum; conditions: 28 days
Source text: as §1, §2

[16] = test system: Sesbania; assay: Test F over-the-top soil/foliage treatment; assay type: in vivo, Sesbania exaltata; set-up: scale not given here; conditions: soil/foliage spray, ~14 days
Protocol: as §3, §4

[17] = test system: Wheat; assay: Test F over-the-top soil/foliage treatment; assay type: in vivo, wheet; set-up: scale not given here; conditions: soil/foliage spray, ~14 days
Protocol: as §3, §4

[18] = test system: Wild Oats; assay: Test B pre-emergence on Fallsington silt loam; assay type: in vivo, Avena fatua; set-up: scale not given here; conditions: 28 days
Source text: as §1, §2

[19] = test system: Giant Foxtail; assay: Test B pre-emergence on Fallsington silt loam; assay type: in vivo, Setaria faberii; conditions: 28 days
Source text: as §1, §2

[20] = test system: Pigweed; assay: Test B pre-emergence on Fallsington silt loam; assay type: in vivo, Amaranthus retroflexus; conditions: 28 days
Source text: as §1, §2

[21] = test system: Jimsonweed; assay: Test F over-the-top soil/foliage treatment; assay type: in vivo, Datura stramonium; conditions: soil/foliage spray; 0.003 kg/ha; ~14 days
Protocol: as §3, §4

[22] = test system: Johnsongrass; assay: Test B pre-emergence on Fallsington silt loam; assay type: in vivo, Sorghum halepense; set-up: scale not given here; conditions: 28 days
Source text: as §1, §2

[23] = test system: Wild Oats; assay: Test F over-the-top soil/foliage treatment; assay type: in vivo, Avena fatua; set-up: scale not given here; conditions: soil/foliage spray, ~14 days
Protocol: as §3, §4

[24] = test system: Barnyardgrass; assay: Test B pre-emergence on Fallsington silt loam; assay type: in vivo, Echinochloa crusgalli; conditions: 28 days
Source text: as §1, §2

[25] = test system: Cheatgrass; assay: Test B pre-emergence on Fallsington silt loam; assay type: in vivo, Bromus secalinus; conditions: 0.007 kg/ha, 28 days
Source text: as §1, §2

[26] = test system: Morningglory; assay: Test B pre-emergence on Fallsington silt loam; assay type: in vivo, Ipomoea hederacea; conditions: 28 days
Source text: as §1, §2

[27] = test system: Nutsedge; assay: Test F over-the-top soil/foliage treatment; assay type: in vivo, Cyperus rotundus; set-up: scale not given here; conditions: soil/foliage spray, ~14 days
Protocol: as §3, §4

[28] = test system: Barnyardgrass; assay: Test F over-the-top soil/foliage treatment; assay type: in vivo, Echinochloa crusgalli; set-up: scale not given here; conditions: soil/foliage spray, ~14 days
Protocol: as §3, §4

[29] = test system: Crabgrass; assay: Test B pre-emergence on Fallsington silt loam; assay type: in vivo, Digitaria sanguinalis; set-up: scale not given here; conditions: 28 days
Source text: as §1, §2

[30] = test system: Ky. bluegrass; assay: Test B pre-emergence on Fallsington silt loam; assay type: in vivo, Kentucky bluegrass; set-up: scale not given here; conditions: 28 days
Source text: as §1, §2

In the case of `Cc1cc(C)nc(NC(=O)NS(=O)(=O)c2ccccc2OS(C)(=O)=O)n1` [Compound 3, N-[(4,6-dimethylpyrimidin-2-yl)aminocarbonyl]-2-hydroxybenzenesulfonamide, methanesulfonate], the Soybean response rating ([1]; 0.007 kg/ha) is reported as 0, the Soybean response rating ([1]; 0.015 kg/ha) is reported as 0 and the “Giant Foxtail response rating” value ([2]; 0.003 kg/ha) is reported as 0. The “Giant Foxtail response rating” value ([2]; 0.007 kg/ha) was 0, the Rice response rating [3] was 3G and the Cotton response rating ([4]; 0.007 kg/ha) was 0. It also gave a Cotton response rating ([4]; 0.015 kg/ha) of 0, a Sorghum response rating ([5]; 0.007 kg/ha) of 2G and a Sorghum response rating ([5]; 0.015 kg/ha) of 4G. It also gave a Sorghum response rating ([5]; 0.03 kg/ha) of 10C, a Sorghum response rating ([6]; 0.015 kg/ha) of 9C and a Sorghum response rating ([6]; 0.06 kg/ha) of 10C. The Alfalfa response rating ([7]; 0.007 kg/ha) was 7G, the Alfalfa response rating ([7]; 0.015 kg/ha) was 8C and the Alfalfa response rating ([7]; 0.06 kg/ha) was 9C. It also gave a Nutsedge response rating ([8]; 0.007 kg/ha) of 0, a Nutsedge response rating ([8]; 0.015 kg/ha) of 0 and a Mustard response rating [9] of 10C. It also gave a Corn response rating ([10]; 0.007 kg/ha) of 9G, a Corn response rating ([10]; 0.06 kg/ha) of 10C and a Sunflower response rating [11] of 10C. It also gave a Sugarbeets response rating [12] of 10C, a Cassia response rating ([13]; 0.007 kg/ha) of 0 and a Cassia response rating ([13]; 0.015 kg/ha) of 0. It also gave a Dallisgrass response rating ([14]; 0.007 kg/ha) of 0, a Dallisgrass response rating ([14]; 0.015 kg/ha) of 3G and a Dallisgrass response rating ([14]; 0.03 kg/ha) of 6G. The Cocklebur response rating ([15]; 0.007 kg/ha) was 0, the Cocklebur response rating ([15]; 0.015 kg/ha) was 0 and the Cocklebur response rating ([15]; 0.03 kg/ha) was 7G. For the same molecule, the Sesbania response rating ([16]; 0.015 kg/ha) was 9C, the Sesbania response rating ([16]; 0.06 kg/ha) was 9C and the Wheat response rating ([17]; 0.003 kg/ha) was 3G. For the same molecule, the Wheat response rating ([17]; 0.007 kg/ha) was 6G, the Wheat response rating ([17]; 0.015 kg/ha) was 1C and the Wheat response rating ([17]; 0.06 kg/ha) was 8C. The “Wild Oats response rating” value ([18]; 0.007 kg/ha) was 0, the “Wild Oats response rating” value ([18]; 0.015 kg/ha) was 0 and the “Wild Oats response rating” value ([18]; 0.03 kg/ha) was 10C. The “Wild Oats response rating” value ([18]; 0.12 kg/ha) was 10C, the “Giant Foxtail response rating” value ([19]; 0.007 kg/ha) was 0 and the “Giant Foxtail response rating” value ([19]; 0.015 kg/ha) was 3G. For the same molecule, the “Giant Foxtail response rating” value ([19]; 0.03 kg/ha) was 3C, the Pigweed response rating ([20]; 0.007 kg/ha) was 0 and the Pigweed response rating ([20]; 0.12 kg/ha) was 10C. The Jimsonweed response rating [21] was 0, the Johnsongrass response rating ([22]; 0.007 kg/ha) was 0 and the Johnsongrass response rating ([22]; 0.015 kg/ha) was 3G. The Johnsongrass response rating ([22]; 0.03 kg/ha) was 10C, the Johnsongrass response rating ([22]; 0.12 kg/ha) was 10C and the “Wild Oats response rating” value ([23]; 0.003 kg/ha) was 4G. For the same molecule, the “Wild Oats response rating” value ([23]; 0.007 kg/ha) was 5G, the “Wild Oats response rating” value ([23]; 0.06 kg/ha) was 10C and the Barnyardgrass response rating ([24]; 0.007 kg/ha) was 2G. It also gave a Barnyardgrass response rating ([24]; 0.015 kg/ha) of 2G, a Cheatgrass response rating [25] of 0 and a Morningglory response rating ([26]; 0.007 kg/ha) of 3G. The Morningglory response rating ([26]; 0.015 kg/ha) was 3G, the Morningglory response rating ([26]; 0.03 kg/ha) was 8G and the Nutsedge response rating ([27]; 0.003 kg/ha) was 5G. For the same molecule, the Nutsedge response rating ([27]; 0.007 kg/ha) was 7G, the Barnyardgrass response rating ([28]; 0.015 kg/ha) was 9C and the Barnyardgrass response rating ([28]; 0.06 kg/ha) was 10C. It also gave a Crabgrass response rating ([29]; 0.007 kg/ha) of 0, a Crabgrass response rating ([29]; 0.015 kg/ha) of 0 and a Crabgrass response rating ([29]; 0.03 kg/ha) of 5G. For the same molecule, the Crabgrass response rating ([29]; 0.12 kg/ha) was 6G, the “Ky. bluegrass response rating” value ([30]; 0.007 kg/ha) was 0 and the “Ky. bluegrass response rating” value ([30]; 0.015 kg/ha) was 2G. For the same molecule, the “Ky. bluegrass response rating” value ([30]; 0.03 kg/ha) was 10C.
